pIC50: −log10 of the molar value.
Target: T1, RORc ligand binding domain (Homo sapiens, UniProt P51449)
T1 construct: host or cells: E. coli
T1 sequence (P51449 269-508 limits assumed): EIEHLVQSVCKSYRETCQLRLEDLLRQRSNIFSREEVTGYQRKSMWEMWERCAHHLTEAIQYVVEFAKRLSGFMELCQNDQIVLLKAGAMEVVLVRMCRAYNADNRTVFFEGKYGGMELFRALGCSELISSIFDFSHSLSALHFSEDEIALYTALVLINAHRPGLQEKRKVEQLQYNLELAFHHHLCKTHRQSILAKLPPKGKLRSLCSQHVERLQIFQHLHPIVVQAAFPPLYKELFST
Assay: In Vitro RORc Ligand Binding Assay (25-[3H]hydroxycholesterol radioligand filtration)
Settings: In Vitro RORc Ligand Binding Assay; Table 4; read-out: RORc IC50

| pIC50 | Compound |
| --- | --- |
| 8.05 | C[C@H]1CCC(c2ccccc2)S(=O)(=O)N1Cc1ccc(N2CCC(c3cnn[nH]3)CC2)cc1F (single isomer, unassigned) [Example 254] |
| 7.92 | C[C@H]1CCC(c2ccccc2)S(=O)(=O)N1Cc1ccc(N2CCC(c3cnn[nH]3)CC2)cc1F (single isomer, unassigned) [Example 255] |
| 8.40 | C[C@H]1CCC(c2ccccc2)S(=O)(=O)N1Cc1ccc(N2CCC(n3ccnn3)CC2)cc1F (single isomer, unassigned) [Example 256] |
| 7.27 | O=S1(=O)C(c2ccccc2)CC2(CC2)CN1Cc1ccc(N2CCC(n3cnnc3)CC2)cc1F (single isomer, unassigned) [Example 257, 5-[2-Fluoro-4-(4-[1,2,4]triazol-4-yl-piperidin-1-yl)-benzyl]-7-phenyl-6-thia-5-aza-spiro[2.5]octane 6,6-dioxde] |
| 5.98 | CC(=O)N1CCN(c2ccc(CN3CC4(COC4)CC(c4ccccc4)S3(=O)=O)c(F)c2)CC1 (single isomer, unassigned) [Example 258, 1-(4-(4-((7,7-dioxido-8-phenyl-2-oxa-7-thia-6-azaspiro[3.5]nonan-6-yl)methyl)-3-fluorophenyl)piper-azin-1-yl)ethanone] |
| 7.24 | O=S1(=O)C(c2ccccc2)CC2(CC2)CN1Cc1ccc(N2CCC(n3cnnc3)CC2)cc1F (single isomer, unassigned) [Example 259, 5-[2-Fluoro-4-(4-[1,2,4]triazol-4-yl-piperidin-1-yl)-benzyl]-7-phenyl-6-thia-5-aza-spiro[2.5]octane 6,6-dioxide] |
| 5.36 | CC(=O)N1CCN(c2ccc(CN3CC4(COC4)CC(c4ccccc4)S3(=O)=O)c(F)c2)CC1 (single isomer, unassigned) [Example 266, 1-(4-(4-((7,7-dioxido-8-phenyl-2-oxa-7-thia-6-azaspiro[3.5]nonan-6-yl)methyl)-3-fluorophenyl)piper-azin-1-yl)ethanone] |
| 5.55 | C[C@H]1CCC(c2ccccc2)S(=O)(=O)N1Cc1ccc(C(=O)NC2CCOCC2)cc1 (single isomer, unassigned) [Example 267] |
| 7.36 | CC(=O)N1CCN(c2ccc(CN3C4CC(C4)CC(c4ccccc4)S3(=O)=O)c(F)c2)CC1 (single isomer, unassigned) [Example 300, 1-{4-[4-(3,3-Dioxo-4-phenyl-3-thia-2-aza-bicyclo[4.1.1]oct-2-ylmethyl)-3-fluoro-phenyl]-piperazin-1-yl}-ethanone] |
| 6.51 | CC(=O)N1CCN(c2ccc(CN3C4CC(C4)CC(c4ccccc4)S3(=O)=O)c(F)c2)CC1 (single isomer, unassigned) [Example 301, 1-{4-[4-(3,3-Dioxo-4-pheny-3-thia-2-aza-bicyclo[4.1.1]oct-2-ylmethyl)-3-fluoro-phenyl]-piperazin-1-yl}-ethanone] |
| 7.62 | N#CCC(=O)N1CCN(c2ccc(CN3CCCCC(c4ccccc4)S3(=O)=O)c(F)c2)CC1 (single isomer, unassigned) [Example 302, 3-{4-[4-(1,1-Dioxo-7-phenyl-[1,2]thiazepan-2-ylmethyl)-3-fluoro-phenyl]-piperazin-1-yl}-3-oxo-propionitrile] |
| 7.07 | N#CCC(=O)N1CCN(c2ccc(CN3CCCCC(c4ccccc4)S3(=O)=O)c(F)c2)CC1 (single isomer, unassigned) [Example 303, 3-{4-[4-(1,1-Dioxo-7-phenyl-[1,2]thiazepan-2-ylmethyl)-3-fluoro-phenyl]-piperazin-1-yl}-3-oxo-propionitrile] |
| 7.42 | C[C@H](O)C(=O)N1CCN(c2ccc(CN3CCCCC(c4ccccc4)S3(=O)=O)c(F)c2)CC1 (single isomer, unassigned) [Example 304, 1-{4-[4-(1,1-Dioxo-7-phenyl-[1,2]thiazepan-2-ylmethyl)-3-fluoro-phenyl]-piperazin-1-yl}-2-hydroxy-propan-1-one] |
| 6.78 | C[C@H](O)C(=O)N1CCN(c2ccc(CN3CCCCC(c4ccccc4)S3(=O)=O)c(F)c2)CC1 (single isomer, unassigned) [Example 305, 1-{4-[4-(1,1-Dioxo-7-phenyl-[1,2]thiazepan-2-ylmethyl)-3-fluoro-phenyl]-piperazin-1-yl}-2-hydroxy-propan-1-one] |
| 7.06 | CC(=O)N1CCN(c2ccc(CN3CCCCC(c4ccccc4)S3(=O)=O)cc2)CC1 (single isomer, unassigned) [Example 306, 1-{4-[4-(1,1-Dioxo-7-phenyl-[1,2]thiazepan-2-ylmethyl)-phenyl]-piperazin-1-yl}-ethanone] |
| 6.64 | CC(=O)N1CCN(c2ccc(CN3CCCCC(c4ccccc4)S3(=O)=O)cc2)CC1 (single isomer, unassigned) [Example 307, 1-{4-[4-(1,1-Dioxo-7-phenyl-[1,2]thiazepan-2-ylmethyl)-phenyl]-piperazin-1-yl}-ethanone] |
| 7.54 | O=C(CO)N1CCN(c2ccc(CN3CCCCC(c4ccccc4)S3(=O)=O)c(F)c2)CC1 (single isomer, unassigned) [Example 308, 1-{4-[4-(1,1-Dioxo-7-phenyl-[1,2]thiazepan-2-ylmethyl)-3-fluoro-phenyl]-piperazin-1-yl}-2-hydroxy-ethanone] |

| pIC50 | Compound |
| --- | --- |
| 6.97 | C[C@H](O)C(=O)N1CCN(c2ccc(CN3CCCCC(c4ccccc4)S3(=O)=O)cc2)CC1 (single isomer, unassigned) [Example 309, 1-{4-[4-(1,1-Dioxo-7-phenyl-[1,2]thiazepan-2-ylmethyl)-phenyl]-piperazin-1-yl}-2-hydroxy-propan-1-one] |
| 7.35 | N#CCC(=O)N1CCN(c2ccc(CN3CCCCC(c4ccccc4)S3(=O)=O)cc2)CC1 (single isomer, unassigned) [Example 310, 3-{4-[4-(1,1-Dioxo-7-phenyl-[1,2]thiazepan-2-ylmethyl)-phenyl]-piperazin-1-yl}-3-oxo-propionitrile] |
| 6.05 | C[C@H](O)C(=O)N1CCN(c2ccc(CN3CCCCC(c4ccccc4)S3(=O)=O)cc2)CC1 (single isomer, unassigned) [Example 311, 1-{4-[4-(1,1-Dioxo-7-phenyl-[1,2]thiazepan-2-ylmethyl)-phenyl]-piperazin-1-yl}-2-hydroxy-propan-1-one] |
| 6.03 | N#CCC(=O)N1CCN(c2ccc(CN3CCCCC(c4ccccc4)S3(=O)=O)cc2)CC1 (single isomer, unassigned) [Example 312, 3-{4-[4-(1,1-Dioxo-7-phenyl-[1,2]thiazepan-2-ylmethyl)-phenyl]-piperazin-1-yl}-3-oxo-propionitrile] |
| 6.23 | O=C(CO)N1CCN(c2ccc(CN3CCCCC(c4ccccc4)S3(=O)=O)c(F)c2)CC1 (single isomer, unassigned) [Example 313, 1-{4-[4-(1,1-Dioxo-7-phenyl-[1,2]thiazepan-2-ylmethyl)-3-fluoro-phenyl]-piperazin-1-yl}-2-hydroxy-ethanone] |
| 6.63 | C[C@@H](O)C(=O)N1CCN(c2ccc(CN3CCCCC(c4ccccc4)S3(=O)=O)c(F)c2)CC1 (single isomer, unassigned) [Example 314, 1-{4-[4-(1,1-Dioxo-7-phenyl-[1,2]thiazepan-2-ylmethyl)-3-fluoro-phenyl]-piperazin-1-yl}-2-hydroxy-propan-1-one] |
| 6.49 | C[C@@H](O)C(=O)N1CCN(c2ccc(CN3CCCCC(c4ccccc4)S3(=O)=O)cc2)CC1 (single isomer, unassigned) [Example 315, 1-{4-[4-(1,1-Dioxo-7-phenyl-[1,2]thiazepan-2-ylmethyl)-phenyl]-piperazin-1-yl}-2-hydroxy-propan-1-one] |
| 6.76 | O=C(CO)N1CCN(c2ccc(CN3CCCCC(c4ccccc4)S3(=O)=O)cc2)CC1 (single isomer, unassigned) [Example 316, 1-{4-[4-(1,1-Dioxo-7-phenyl-[1,2]thiazepan-2-ylmethyl)-phenyl]-piperazin-1-yl}-2-hydroxy-ethanone] |
| 5.47 | C[C@@H](O)C(=O)N1CCN(c2ccc(CN3CCCCC(c4ccccc4)S3(=O)=O)cc2)CC1 (single isomer, unassigned) [Example 317, 1-{4-[4-(1,1-Dioxo-7-phenyl-[1,2]thiazepan-2-ylmethyl)-phenyl]-piperazin-1-yl}-2-hydroxy-propan-1-one] |
| 5.71 | O=C(CO)N1CCN(c2ccc(CN3CCCCC(c4ccccc4)S3(=O)=O)cc2)CC1 (single isomer, unassigned) [Example 318, 1-{4-[4-(1,1-Dioxo-7-phenyl-[1,2]thiazepan-2-ylmethyl)-phenyl]-piperazin-1-yl}-2-hydroxy-ethanone] |
| 8.10 | CC(=O)N1CCN(c2ccc(CN3[C@H](C)CCCC(c4ccccc4)S3(=O)=O)c(F)c2)CC1 (single isomer, unassigned) [Example 319] |
| 5.72 | CC(=O)N1CCN(c2ccc(CN3[C@@H](C)CCCC(c4ccccc4)S3(=O)=O)c(F)c2)CC1 (single isomer, unassigned) [Example 320] |
| 7.80 | CC(=O)N1CCN(c2ccc(CN3[C@H](C)CCCC(c4ccccc4)S3(=O)=O)c(F)c2)CC1 (single isomer, unassigned) [Example 321] |
| 7.59 | CC(=O)N1CCN(c2ccc(CN3[C@@H](C)CCCC(c4ccccc4)S3(=O)=O)c(F)c2)CC1 (single isomer, unassigned) [Example 322] |
| 8.70 | O=S1(=O)C(c2ccccc2)CCCCN1Cc1ccc(N2CCC(n3cnnc3)CC2)cc1F (single isomer, unassigned) [Example 323, 2-[2-Fluoro-4-(4-[1,2,4]triazol-4-yl-piperidin-1-yl)-benzyl]-7-phenyl-[1,2]thiazepane 1,1-dioxide] |
| 8.52 | CS(=O)(=O)N1CCC(Nc2ccc(CN3CCCCC(c4ccccc4)S3(=O)=O)cc2)CC1 (single isomer, unassigned) [Example 324, [4-(1,1,-Dioxo-7-phenyl-[1,2]thiazepan-2-ylmethyl)-phenyl]-(1-methanesulfonyl-piperidin-4-yl)-amine] |
